System: 817829-284-R-J1-PDC complex spheroids, viability
Assay: Anticancer human tumor 817829-284-R-J1-PDC patient-derived colon adenocarcinoma cell line growth inhibition [GQUAD]
Settings: for IC50: curve of first compound; for viability, T/C: stronger effect = lower value
How it was run: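 Multi-cell-type spheroids of tumor cells with HUVEC and mesenchymal stem cells, treated with drug combinations. Concentrations descend in half-log steps from near clinical Cmax, or from 10 microM where Cmax is unknown; viability read-out.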

[1] = second compound 0.0316 µM, first compound 0.0316 µM
[2] = second compound 0.0316 µM, first compound 0.1 µM
[3] = second compound 0.0316 µM, first compound 0.316 µM
[4] = second compound 0.0316 µM, first compound 1 µM
[5] = second compound 0.0316 µM, first compound 3.16 µM
[6] = second compound 0.0316 µM, first compound 10 µM
[7] = second compound 0.1 µM, first compound 0.0316 µM
[8] = second compound 0.1 µM, first compound 0.1 µM
[9] = second compound 0.1 µM, first compound 0.316 µM
[10] = second compound 0.1 µM, first compound 1 µM
[11] = second compound 0.1 µM, first compound 3.16 µM
[12] = second compound 0.1 µM, first compound 10 µM
[13] = second compound 0.316 µM, first compound 0.0316 µM
[14] = second compound 0.316 µM, first compound 0.1 µM
[15] = second compound 0.316 µM, first compound 0.316 µM
[16] = second compound 0.316 µM, first compound 1 µM
[17] = second compound 0.316 µM, first compound 3.16 µM
[18] = second compound 0.316 µM, first compound 10 µM
[19] = second compound 1 µM, first compound 0.0316 µM
[20] = second compound 1 µM, first compound 0.1 µM
[21] = second compound 1 µM, first compound 0.316 µM
[22] = second compound 1 µM, first compound 1 µM
[23] = second compound 1 µM, first compound 3.16 µM
[24] = second compound 1 µM, first compound 10 µM
[25] = second compound 3.16 µM, first compound 0.0316 µM
[26] = second compound 3.16 µM, first compound 0.1 µM
[27] = second compound 3.16 µM, first compound 0.316 µM
[28] = second compound 3.16 µM, first compound 1 µM
[29] = second compound 3.16 µM, first compound 3.16 µM
[30] = second compound 3.16 µM, first compound 10 µM
[31] = second compound 10 µM, first compound 0.0316 µM
[32] = second compound 10 µM, first compound 0.1 µM
[33] = second compound 10 µM, first compound 0.316 µM
[34] = second compound 10 µM, first compound 1 µM
[35] = second compound 10 µM, first compound 3.16 µM
[36] = second compound 10 µM, first compound 10 µM
[37] = second compound 0.0316 µM, first compound 0.000999 µM
[38] = second compound 0.0316 µM, first compound 0.00316 µM
[39] = second compound 0.0316 µM, first compound 0.00999 µM
[40] = second compound 0.0316 µM, first compound 0.0999 µM
[41] = second compound 0.1 µM, first compound 0.000999 µM
[42] = second compound 0.1 µM, first compound 0.00316 µM
[43] = second compound 0.1 µM, first compound 0.00999 µM
[44] = second compound 0.1 µM, first compound 0.0999 µM
[45] = second compound 0.316 µM, first compound 0.000999 µM
[46] = second compound 0.316 µM, first compound 0.00316 µM
[47] = second compound 0.316 µM, first compound 0.00999 µM
[48] = second compound 0.316 µM, first compound 0.0999 µM
[49] = second compound 1 µM, first compound 0.000999 µM
[50] = second compound 1 µM, first compound 0.00316 µM
[51] = second compound 1 µM, first compound 0.00999 µM
[52] = second compound 1 µM, first compound 0.0999 µM
[53] = second compound 3.16 µM, first compound 0.000999 µM
[54] = second compound 3.16 µM, first compound 0.00316 µM
[55] = second compound 3.16 µM, first compound 0.00999 µM
[56] = second compound 3.16 µM, first compound 0.0999 µM
[57] = second compound 10 µM, first compound 0.000999 µM
[58] = second compound 10 µM, first compound 0.00316 µM
[59] = second compound 10 µM, first compound 0.00999 µM
[60] = second compound 10 µM, first compound 0.0999 µM
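Also: spheroids exposed to agents for 7 days before readout.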
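For viability, T/C in this document: percent viability relative to DMSO vehicle control taken as 100%.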

COc1ncnc(C2CC2)c1-c1ncc2cnn(Cc3ccc(-c4nc(C(F)(F)F)cn4C(C)C)cc3)c2n1 + Cc1[nH]c2ccc(F)cc2c1-c1nc2c3cccnc3c3ncccc3c2[nH]1
IC50 (second compound 0.0316 µM): > 10000 nM
IC50 (second compound 0.1 µM): > 10000 nM
IC50 (second compound 0.316 µM): > 10000 nM
IC50 (second compound 1 µM): > 10000 nM
IC50 (second compound 3.16 µM): > 10000 nM
IC50 (second compound 10 µM): 32 nM
viability, T/C [1]: 99.1%
viability, T/C [2]: 113%
viability, T/C [3]: 101%
viability, T/C [4]: 97.9%
viability, T/C [5]: 113%
viability, T/C [6]: 109%
viability, T/C [7]: 96.6%
viability, T/C [8]: 115%
viability, T/C [9]: 99.8%
viability, T/C [10]: 111%
viability, T/C [11]: 108%
viability, T/C [12]: 115%
viability, T/C [13]: 105%
viability, T/C [14]: 119%
viability, T/C [15]: 101%
viability, T/C [16]: 94.2%
viability, T/C [17]: 110%
viability, T/C [18]: 129%
viability, T/C [19]: 118%
viability, T/C [20]: 105%
viability, T/C [21]: 117%
viability, T/C [22]: 98.9%
viability, T/C [23]: 108%
viability, T/C [24]: 118%
viability, T/C [25]: 63.5%
viability, T/C [26]: 73.5%
viability, T/C [27]: 56.4%
viability, T/C [28]: 79.9%
viability, T/C [29]: 84.8%
viability, T/C [30]: 68.7%
viability, T/C [31]: 50.2%
viability, T/C [32]: 26.4%
viability, T/C [33]: 27.8%
viability, T/C [34]: 40.9%
viability, T/C [35]: 15.1%
viability, T/C [36]: 18.8%

C#Cc1c(F)ccc2cc(O)cc(-c3ncc4c(N5CC6CCC(C5)N6)nc(OCC56CCCN5CC(F)C6)nc4c3F)c12 (stereo not drawn) + CN(C)c1ccc(Nc2c3ccc(NC(=O)CCN4CCCC4)cc3nc3cc(NC(=O)CCN4CCCC4)ccc23)cc1
IC50 (second compound 0.0316 µM): > 10000 nM
IC50 (second compound 0.1 µM): > 10000 nM
IC50 (second compound 0.316 µM): > 10000 nM
IC50 (second compound 1 µM): > 10000 nM
IC50 (second compound 3.16 µM): > 10000 nM
IC50 (second compound 10 µM): 4690 nM
viability, T/C [1]: 120%
viability, T/C [2]: 98.2%
viability, T/C [3]: 96%
viability, T/C [4]: 98.1%
viability, T/C [5]: 117%
viability, T/C [6]: 121%
viability, T/C [7]: 95.5%
viability, T/C [8]: 106%
viability, T/C [9]: 95.8%
viability, T/C [10]: 98.4%
viability, T/C [11]: 114%
viability, T/C [12]: 116%
viability, T/C [13]: 111%
viability, T/C [14]: 105%
viability, T/C [15]: 97.9%
viability, T/C [16]: 106%
viability, T/C [17]: 101%
viability, T/C [18]: 118%
viability, T/C [19]: 96.1%
viability, T/C [20]: 97%
viability, T/C [21]: 113%
viability, T/C [22]: 97.8%
viability, T/C [23]: 105%
viability, T/C [24]: 105%
viability, T/C [25]: 107%
viability, T/C [26]: 112%
viability, T/C [27]: 102%
viability, T/C [28]: 110%
viability, T/C [29]: 117%
viability, T/C [30]: 101%
viability, T/C [31]: 107%
viability, T/C [32]: 116%
viability, T/C [33]: 87.4%
viability, T/C [34]: 94%
viability, T/C [35]: 61.5%
viability, T/C [36]: 24.5%

Cn1ncnc1[C@H]1c2n[nH]c(=O)c3cc(F)cc(c23)N[C@@H]1c1ccc(F)cc1 + Cc1cnc(CNC(=O)c2c(=O)c3ccc(N4CCCN(C)CC4)nc3n3c2sc2ccccc23)cn1
IC50 (second compound 0.0316 µM): 27.3 nM
IC50 (second compound 0.1 µM): < 0.999 nM
IC50 (second compound 0.316 µM): < 0.999 nM
IC50 (second compound 1 µM): < 0.999 nM
IC50 (second compound 3.16 µM): < 0.999 nM
IC50 (second compound 10 µM): < 0.999 nM
viability, T/C [37]: 84.5%
viability, T/C [38]: 70.5%
viability, T/C [39]: 58.1%
viability, T/C [1]: 48.8%
viability, T/C [40]: 43.6%
viability, T/C [3]: 42.4%
viability, T/C [41]: 38.6%
viability, T/C [42]: 35.7%
viability, T/C [43]: 29.8%
viability, T/C [7]: 34.2%
viability, T/C [44]: 31.7%
viability, T/C [9]: 29.6%
viability, T/C [45]: 26.3%
viability, T/C [46]: 25.3%
viability, T/C [47]: 27.7%
viability, T/C [13]: 26.7%
viability, T/C [48]: 26.4%
viability, T/C [15]: 25.3%
viability, T/C [49]: 21.2%
viability, T/C [50]: 22.5%
viability, T/C [51]: 23.2%
viability, T/C [19]: 22.9%
viability, T/C [52]: 23.3%
viability, T/C [21]: 22%
viability, T/C [53]: 20.3%
viability, T/C [54]: 21%
viability, T/C [55]: 19.8%
viability, T/C [25]: 19.4%
viability, T/C [56]: 20.4%
viability, T/C [27]: 16.3%
viability, T/C [57]: 0.16%
viability, T/C [58]: 0.2%
viability, T/C [59]: 0.19%
viability, T/C [31]: 0.17%
viability, T/C [60]: 0.19%
viability, T/C [33]: 0.2%

CCc1c2c(nc3ccc(O)cc13)-c1cc3c(c(=O)n1C2)COC(=O)[C@]3(O)CC + CN(C)c1ccc(Nc2c3ccc(NC(=O)CCN4CCCC4)cc3nc3cc(NC(=O)CCN4CCCC4)ccc23)cc1
IC50 (second compound 0.0316 µM): 1.19 nM
IC50 (second compound 0.1 µM): 1.44 nM
IC50 (second compound 0.316 µM): 2.21 nM
IC50 (second compound 1 µM): 2.22 nM
IC50 (second compound 3.16 µM): 2.78 nM
IC50 (second compound 10 µM): 2.02 nM
viability, T/C [37]: 50.9%
viability, T/C [38]: 44.4%
viability, T/C [39]: 32.1%
viability, T/C [1]: 21.4%
viability, T/C [40]: 10.8%
viability, T/C [3]: 6.33%
viability, T/C [41]: 54.2%
viability, T/C [42]: 40.1%
viability, T/C [43]: 34.6%
viability, T/C [7]: 19.8%
viability, T/C [44]: 10.2%
viability, T/C [9]: 4.96%
viability, T/C [45]: 53.4%
viability, T/C [46]: 48.3%
viability, T/C [47]: 36.7%
viability, T/C [13]: 19.2%
viability, T/C [48]: 10.4%
viability, T/C [15]: 5.53%
viability, T/C [49]: 61.1%
viability, T/C [50]: 44.1%
viability, T/C [51]: 32.5%
viability, T/C [19]: 21.3%
viability, T/C [52]: 11.2%
viability, T/C [21]: 5.92%
viability, T/C [53]: 66.4%
viability, T/C [54]: 45.1%
viability, T/C [55]: 35%
viability, T/C [25]: 23.7%
viability, T/C [56]: 12.2%
viability, T/C [27]: 6.09%
viability, T/C [57]: 60.8%
viability, T/C [58]: 42.9%
viability, T/C [59]: 28.7%
viability, T/C [31]: 20.6%
viability, T/C [60]: 11.4%
viability, T/C [33]: 6.76%

From PubChem BioAssay AID2060503 (Molecular Pharmacology Branch, DTP, NCI, 2025)
